Measured values taken from PMC9127750, “Structure-based design of CDC42 effector interaction inhibitors for the treatment of cancer” (Cell reports, 2022).
Where “and” joins values, the source holds several entries; their conditions need not be identical. Equal values may be shown once.

Tested on: WM3248 melanoma cells, 486 antibodies
Test: Reverse phase protein arrays (RPPA)
Assay type: cell-based, Human
Excerpt: Pellets were snap frozen in liquid nitrogen and shipped to MD Anderson Cancer Center core RPPA facility for RPPA analysis (Table S5). Three biological replicates for each sample were generated.
Nomenclatures on the RPPA heatmaps: name_of_antibody.species_of_antibody.status_of_antibody. V - antibody validated; C - validation of antibody in progress; Q - antibody nonspecific; E – under evaluation; antibodies raised in M - mouse, G - goat, R - rabbit, or T - rat.

[1] = Norm_5: replicates 1-3 and Average, relative to 0
[2] = Norm_5, replicates 1-3 and Average, relative to Norm_0

CN(C)c1cccc(Nc2cc(-c3ccccc3)nc(C3CCNCC3)n2)c1 [ARN22089, N1,N1-dimethyl-N3-(6-phenyl-2-(piperidin-4-yl)pyrimidin-4-yl)benzene-1,3-diamine]
RSK1.R.V normalized RPPA signal [1]: 1.085 and 0.967 and 1.032
RSK.R.C normalized RPPA signal [1]: 1.076 and 1.100
Rab11.R.C normalized RPPA signal [1]: 1.016 and 1.047 and 1.025 and 1.029
Rab25.R.V normalized RPPA signal [1]: 0.979 and 1.011 and 0.966 and 0.985
Rad17_pS645.R.V normalized RPPA signal [1]: 0.979 and 0.856 and 0.975
Rad23A.R.C normalized RPPA signal [1]: 0.977 and 1.149 and 0.762 and 0.963
Rad50.R.V normalized RPPA signal [1]: 1.246 and 0.924 and 1.080
Rad51.R.C normalized RPPA signal [1]: 0.775 and 0.822 and 0.890 and 0.829
Raptor.R.V normalized RPPA signal [1]: 0.903 and 1.058 and 0.970
Rb.M.Q normalized RPPA signal [1]: 0.962 and 0.918 and 0.956 and 0.945
Rb_pS807_S811.R.V normalized RPPA signal [1]: 0.882 and 1.011 and 0.977
Rheb.M.C normalized RPPA signal [1]: 1.004 and 1.059 and 1.001 and 1.021
Rictor.R.C normalized RPPA signal [1]: 1.004 and 0.961 and 1.013
Rictor_pT1135.R.V normalized RPPA signal [1]: 1.047 and 0.998 and 1.024 and 1.023
S6.M.V normalized RPPA signal [1]: 1.120 and 0.958 and 1.452
S6_pS235_S236.R.V normalized RPPA signal [1]: 1.127 and 0.835 and 1.012 and 0.991
S6_pS240_S244.R.V normalized RPPA signal [1]: 0.956 and 0.805 and 0.753 and 0.838
SCD.M.V normalized RPPA signal [1]: 0.971 and 0.991 and 1.085 and 1.016
SDHA.R.V normalized RPPA signal [1]: 1.033 and 1.016 and 1.031
SF2.R.V normalized RPPA signal [1]: 0.946 and 0.943 and 1.034 and 0.974
SFRP1.R.V normalized RPPA signal [1]: 0.931 and 0.917 and 0.927 and 0.925
SGK1.R.V normalized RPPA signal [1]: 1.122 and 0.983 and 1.065
SGK3.R.V normalized RPPA signal [1]: 0.809 and 0.879 and 0.966 and 0.885
SHP2.R.V normalized RPPA signal [1]: 0.965 and 0.955 and 0.959 and 0.960
SHP.2_pY542.R.C normalized RPPA signal [1]: 1.007 and 1.103 and 0.995 and 1.035
SIRPαR.V normalized RPPA signal [1]: 0.995 and 0.945 and 0.836 and 0.925
SLC1A5.R.C normalized RPPA signal [1]: 1.053 and 0.972
SOD1.M.V normalized RPPA signal [1]: 0.959 and 1.035 and 0.980
SOD2.R.V normalized RPPA signal [1]: 1.012 and 1.026 and 0.995
SOX7.R.V normalized RPPA signal [1]: 0.939 and 1.028 and 0.910 and 0.959
STING.R.V normalized RPPA signal [1]: 0.946 and 1.077 and 1.149 and 1.057
Shc_pY317.R.C normalized RPPA signal [1]: 0.575 and 1.701 and 1.009
Slfn11.G.C normalized RPPA signal [1]: 0.898 and 1.001 and 0.887 and 0.929
Smac.M.Q normalized RPPA signal [1]: 0.860 and 1.033 and 0.824 and 0.905
Smad1.R.V normalized RPPA signal [1]: 1.028 and 1.016 and 1.057 and 1.034
Smad3.R.V normalized RPPA signal [1]: 1.027 and 1.110 and 0.885 and 1.007
Smad4.R.V normalized RPPA signal [1]: 0.953 and 0.919 and 1.129 and 1.000
Snail.M.Q normalized RPPA signal [1]: 0.807 and 0.836 and 0.899 and 0.847
Sox2.R.V normalized RPPA signal [1]: 1.113 and 0.987 and 0.935 and 1.012
Sox17.R.V normalized RPPA signal [1]: 0.914 and 0.904 and 1.000 and 0.939
Src.M.V normalized RPPA signal [1]: 0.923 and 1.011 and 1.048 and 0.994
Src_pY416.R.V normalized RPPA signal [1]: 0.930 and 0.928 and 0.956
Src_pY527.R.V normalized RPPA signal [1]: 1.055 and 1.158 and 1.605 and 1.273
Stat1_pY701.R.V normalized RPPA signal [1]: 0.914 and 0.929 and 0.961 and 0.935
Stat3.R.C normalized RPPA signal [1]: 0.970 and 0.910 and 0.975
Stat3_pY705.R.C normalized RPPA signal [1]: 1.031 and 0.914 and 0.997 and 0.980
Stat5a.R.V normalized RPPA signal [1]: 0.989 and 1.022 and 1.028 and 1.013
Stathmin.1.R.V normalized RPPA signal [1]: 1.025 and 1.018 and 0.975 and 1.006
Syk.M.V normalized RPPA signal [1]: 0.694 and 0.899 and 1.030 and 0.874
Synaptophysin.R.C normalized RPPA signal [1]: 0.918 and 0.774 and 1.022 and 0.904
TAZ.R.V normalized RPPA signal [1]: 0.970 and 1.124 and 0.886 and 0.994
TEAD.R.C normalized RPPA signal [1]: 0.913 and 0.942 and 0.954 and 0.936
TFAM.R.V normalized RPPA signal [1]: 0.945 and 1.024 and 1.101 and 1.023
TFRC.R.V normalized RPPA signal [1]: 0.905 and 0.974 and 0.942 and 0.940
TIGAR.R.V normalized RPPA signal [1]: 1.046 and 0.999 and 1.028
TRAP1.M.V normalized RPPA signal [1]: 0.917 and 0.980 and 0.909 and 0.935
TRIM24.R.C normalized RPPA signal [1]: 0.917 and 0.931 and 1.013 and 0.954
TRIM25.R.C normalized RPPA signal [1]: 0.925 and 1.108 and 1.361 and 1.131
TRIP13.R.V normalized RPPA signal [1]: 0.993 and 0.918 and 0.936
Tau.M.C normalized RPPA signal [1]: 1.003 and 0.977 and 1.007
Transglutaminase.M.V normalized RPPA signal [1]: 1.143 and 1.434 and 0.745 and 1.107
A.Raf.R.V RPPA signal, normalized [2]: 1.063 and 0.973 and 1.128 and 1.055
A.Raf_pS299.R.C RPPA signal, normalized [2]: 0.910 and 0.929 and 0.996 and 0.945
ACC1.R.C RPPA signal, normalized [2]: 1.079 and 1.112
ACC_pS79.R.V RPPA signal, normalized [2]: 0.996 and 1.006 and 1.005 and 1.002
ACLY_pS455.R.V RPPA signal, normalized [2]: 0.993 and 1.161 and 0.844 and 0.999
ACSL1.R.V RPPA signal, normalized [2]: 0.995 and 0.806 and 0.904
ACVRL1.R.C RPPA signal, normalized [2]: 0.940 and 0.993 and 0.936 and 0.956
ADAR1.M.V RPPA signal, normalized [2]: 0.990 and 0.970 and 1.080 and 1.013
ALKBH5.R.V RPPA signal, normalized [2]: 1.026 and 1.137 and 0.879 and 1.014
AMPK.a2_pS345.R.V RPPA signal, normalized [2]: 0.974 and 1.081 and 1.055
AMPKa.R.C RPPA signal, normalized [2]: 1.048
AMPKa_pT172.R.C RPPA signal, normalized [2]: 1.029 and 0.832 and 0.850 and 0.903
AR.R.V RPPA signal, normalized [2]: 1.053 and 0.956 and 1.050 and 1.020
ARID1A.R.C RPPA signal, normalized [2]: 1.008 and 1.012 and 1.065
ASNS.R.V RPPA signal, normalized [2]: 1.454 and 1.206
ATM.R.V RPPA signal, normalized [2]: 0.983 and 1.033 and 1.311 and 1.109
ATM_pS1981.R.V RPPA signal, normalized [2]: 0.928 and 0.941 and 0.961 and 0.943
ATP5A.M.C RPPA signal, normalized [2]: 1.127 and 1.377 and 0.535 and 1.013
ATP5H.R.V RPPA signal, normalized [2]: 1.032 and 1.077 and 0.898 and 1.003
ATR.R.V RPPA signal, normalized [2]: 0.945 and 0.970 and 0.954
